# Reference: PMC6979384, “Characterization of the plant homeodomain (PHD) reader family for their histone tail interactions” (Epigenetics & Chromatin, 2020)
# Assays:
# Experiment in all cases: Histone peptide microarray
# Assay type in all cases: binding, human
# Conditions in all cases: histone peptide array, GST-tagged reader
# [1] = tested on: AIRE (PP)
# Summary of the method: (§1)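 A peptide microarray holding 293 synthetic histone peptides with individual or combinatorial modifications was probed with each GST-PHD protein at 0.5 μM. Values represent mean intensity (±SD) from four replicates.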
# [2] = tested on: BAZ2B
# Summary of the method: as §1
# [3] = tested on: BPTF (PB)
# Summary of the method: as §1
# [4] = tested on: CHD4 (PPCC)
# Summary of the method: as §1
# [5] = tested on: CHD5 (PCC)
# Summary of the method: as §1
# [6] = tested on: CHD5 (PPCC)
# Summary of the method: as §1
# [7] = tested on: DIDO1
# Summary of the method: as §1
# [8] = tested on: DPF2 (PPC2W2)
# Summary of the method: as §1
# [9] = tested on: ING1
# Summary of the method: as §1
# [10] = tested on: ING2
# Summary of the method: as §1
# [11] = tested on: ING3
# Summary of the method: as §1
# [12] = tested on: ING4
# Summary of the method: as §1
# [13] = tested on: ING5
# Summary of the method: as §1
# [14] = tested on: KDM4C (TTP)
# Summary of the method: as §1
# [15] = tested on: KDM5A (1)
# Summary of the method: as §1
# [16] = tested on: KDM5A (3)
# Summary of the method: as §1
# [17] = tested on: KDM5B (1)
# Summary of the method: as §1
# [18] = tested on: KDM5B (3)
# Summary of the method: as §1
# [19] = tested on: KDM7A
# Summary of the method: as §1
# [20] = tested on: MLL5
# Summary of the method: as §1
# [21] = tested on: MORC3 (CW)
# Summary of the method: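 GST-tagged PHD readers, 0.5 μM, probed on a microarray of 293 synthetic histone peptides carrying single or combinatorial PTMs (optimized Petell protocol). Signals are averaged over 4 replicates and expressed as relative binding.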
# [22] = tested on: PHF13
# Summary of the method: as §1
# [23] = tested on: PHF21A
# Summary of the method: as §1
# [24] = tested on: PHF23
# Summary of the method: as §1
# [25] = tested on: PHF2
# Summary of the method: as §1
# [26] = tested on: PHF8
# Summary of the method: as §1
# [27] = tested on: PHRF1 (RP)
# Summary of the method: as §1
# [28] = tested on: RAG2
# Summary of the method: as §1
# [29] = tested on: SP140L
# Summary of the method: as §1
# [30] = tested on: TAF3
# Summary of the method: as §1
# [31] = tested on: TRIM66 (PB)
# Summary of the method: as §1
# [32] = PB = PHD + Bromodomain, arrays performed twice, n of 4
# [33] = PPCC = Dual PHD + Dual Chromodomain, arrays performed twice, n of 4
# [34] = sheet "Array Heatmap", total n = 4
substance,measurement,setting,value
"H3.3 (27-45): H3.3 27-45 (KSAPSTGGVKKPHRYRPGT; UniProt P84243 28-46, looked up, fragment)","Array Heatmap signal, AIRE (PP)","[1]; arrays performed twice, n of 4",0.4994
same,"Array Heatmap signal, BAZ2B","[2]; arrays performed twice, n of 4",0.4692
same,"Array Heatmap signal, BPTF (PB)",[3]; [32],0.34
same,"Array Heatmap signal, CHD4 (PPCC)",[4]; [33],0.5867
same,"Array Heatmap signal, CHD5 (PCC)","[5]; PCC = PHD + Dual Chromodomain, arrays performed twice, n of 4",0.7947
same,"Array Heatmap signal, CHD5 (PPCC)",[6]; [33],0.5478
same,"Array Heatmap signal, DIDO1","[7]; arrays performed twice, n of 4",0.7133
same,"Array Heatmap signal, DPF2 (PPC2W2)","[8]; PPC2W2 = Dual PHD + C2W2-type Zn-finger, arrays performed twice, n of 4",0.6084
same,"Array Heatmap signal, ING1","[9]; arrays performed twice, n of 4",0.4846
same,"Array Heatmap signal, ING2","[10]; arrays performed twice, n of 4",0.588
same,"Array Heatmap signal, ING3","[11]; arrays performed twice, n of 4",0.4546
same,"Array Heatmap signal, ING4","[12]; arrays performed twice, n of 4",0.4566
same,"Array Heatmap signal, ING5","[13]; arrays performed twice, n of 4",0.3478
same,"Array Heatmap signal, KDM4C (TTP)","[14]; TTP = Tandem Tudor domain + PHD, arrays performed twice, n of 4",0.5199
same,"Array Heatmap signal, KDM5A (1)","[15]; arrays performed twice, n of 4",0.4676
same,"Array Heatmap signal, KDM5A (3)","[16]; arrays performed twice, n of 4",0.405
same,"Array Heatmap signal, KDM5B (1)","[17]; arrays performed twice, n of 4",0.6276
same,"Array Heatmap signal, KDM5B (3)","[18]; arrays performed twice, n of 4",0.4762
same,"Array Heatmap signal, KDM7A","[19]; arrays performed twice, n of 4",0.4316
same,"Array Heatmap signal, MLL5","[20]; arrays performed twice, n of 4",0.5451
same,"Array Heatmap signal, MORC3 (CW)","[21]; CW = CW-type Zn-finger, arrays performed twice, n of 4",0.3459
same,"Array Heatmap signal, PHF13","[22]; arrays performed twice, n of 4",0.5824
same,"Array Heatmap signal, PHF21A","[23]; arrays performed twice, n of 4",0.4761
same,"Array Heatmap signal, PHF23","[24]; arrays performed twice, n of 4",0.5188
same,"Array Heatmap signal, PHF2","[25]; arrays performed twice, n of 4",0.4329
same,"Array Heatmap signal, PHF8","[26]; arrays performed twice, n of 4",0.3699
same,"Array Heatmap signal, PHRF1 (RP)","[27]; arrays performed twice, n of 4",0.4032
same,"Array Heatmap signal, RAG2","[28]; arrays performed twice, n of 4",0.2569
same,"Array Heatmap signal, SP140L","[29]; arrays performed twice, n of 4",0.3705
same,"Array Heatmap signal, TAF3","[30]; arrays performed twice, n of 4",0.2584
same,"Array Heatmap signal, TRIM66 (PB)",[31]; [32],0.5678
H3.3K18ac + K23ac + K27ac + S28p: H3.3 15-34,"Array Heatmap signal, AIRE (PP)",[1]; [34],0.4033
same,"Array Heatmap signal, BAZ2B",[2]; [34],0.4455
same,"Array Heatmap signal, BPTF (PB)",[3]; [34],0.3427
same,"Array Heatmap signal, CHD4 (PPCC)",[4]; [34],0.5345
same,"Array Heatmap signal, CHD5 (PCC)",[5]; [34],0.7419
same,"Array Heatmap signal, CHD5 (PPCC)",[6]; [34],0.5304
same,"Array Heatmap signal, DIDO1",[7]; [34],0.747
same,"Array Heatmap signal, DPF2 (PPC2W2)",[8]; [34],0.6362
same,"Array Heatmap signal, ING1",[9]; [34],0.5496
same,"Array Heatmap signal, ING2",[10]; [34],0.6018
same,"Array Heatmap signal, ING3",[11]; [34],0.4727
same,"Array Heatmap signal, ING4",[12]; [34],0.4374
same,"Array Heatmap signal, ING5",[13]; [34],0.3405
same,"Array Heatmap signal, KDM4C (TTP)",[14]; [34],0.4483
same,"Array Heatmap signal, KDM5A (1)",[15]; [34],0.4461
same,"Array Heatmap signal, KDM5A (3)",[16]; [34],0.436
same,"Array Heatmap signal, KDM5B (1)",[17]; [34],0.64
same,"Array Heatmap signal, KDM5B (3)",[18]; [34],0.4567
same,"Array Heatmap signal, KDM7A",[19]; [34],0.3117
same,"Array Heatmap signal, MLL5",[20]; [34],0.5576
same,"Array Heatmap signal, MORC3 (CW)",[21]; [34],0.3503
same,"Array Heatmap signal, PHF13",[22]; [34],0.5819
same,"Array Heatmap signal, PHF21A",[23]; [34],0.4374
same,"Array Heatmap signal, PHF23",[24]; [34],0.5591
same,"Array Heatmap signal, PHF2",[25]; [34],0.5396
same,"Array Heatmap signal, PHF8",[26]; [34],0.3574
same,"Array Heatmap signal, PHRF1 (RP)",[27]; [34],0.4303
same,"Array Heatmap signal, RAG2",[28]; [34],0.2492
same,"Array Heatmap signal, SP140L",[29]; [34],0.326
same,"Array Heatmap signal, TAF3",[30]; [34],0.2571
same,"Array Heatmap signal, TRIM66 (PB)",[31]; [34],0.5994
